Experimental findings from patent US8709406B2, “Prevention and treatment of oxidative stress disorders by gluthathione and phase II detoxification enzymes” (Brassica Foundation for ChemoProtection Research, priority 2001, dated 2014) are described below.

Where two headings read alike, the source gives them in different places.

Common to all, as to format: cell-based, human
The subject of one test is ARPE-19 cells. In words: Oxidant cytotoxicity (MTT viability, median effect analysis) and protection by 24 h sulforaphane pretreatment. To be noted: for EC50: Homo sapiens. The protocol: (§1) All experiments were performed in 96-well microliter plates. ARPE-19 and HaCaT cells were seeded at 10,000 cells per well and grown for 24 h before addition of sulforaphane, whereas L1210 cells (5,000 cells/well) were not incubated before sulforaphane treatment. Solutions of sulforaphane (5 mM) in dimethyl sulfoxide were diluted with the cognate culture medium to provide final inducer concentrations of 0.16-5.0 μM. The final DMSO concentrations were 0.1% by volume.
Tert-Butyl hydroperoxide (1 M) and 4-hydroxynonenal (25 mM) were dissolved in DMSO and diluted 1000-fold with serum-free medium before addition of serial dilutions to the microtiter plate wells. The final concentrations of DMSO were therefore less than 0.1% (by vol.). Menadione sodium bisulfite (0.5 M) and SIN-1 (0.5 M) were dissolved and added in PBS. ARPE-19 cells were exposed to menadione for 2 h and to tert-butyl hydroperoxide for 16 h, washed with PBS, and cell viability was determined by the MIT test. ARPE-19 cells were exposed to peroxynitrite for 2 h and 4-hydroxynonenal for 4 h, and the cells were then incubated in serum-free media for 22 and 20 h, respectively, washed with PBS, and cell viability was determined. The additional incubation periods were required for peroxynitrite and 4-hydroxynonenal to evoke maximal cytotoxicity.
(§2) Cell viability was determined by spectroscopic measurement of the reduction of MTT (Carmichael, J., DeGraff, W. G., Gazdar, A. F., Minna, J. D. & Mitchell, J. B. (1987) Cancer Res. 47, 936-942). The culture media were discarded after the designated incubation periods, the cells were washed three times with PBS by use of a microtiter plate washer (Ultrawash Plus, Dynex Technologies, Chantilly, Va.). Each well then received 150 μl of an MTT solution (0.5 mg/ml) in serum-free medium. The plates were incubated for 2 h at 37° C., the MTT solution was discarded, 100 μl of DMSO were added to each well, and the plates were shaken at 200 rpm on an orbital shaker for 5 min. The absorbances of the wells were determined at 555 nm with a microtiter plate reader (Spectra Max Plus, Molecular Devices, Sunnyvale, Calif.). The absorbance of reduced MIT was then compared at each inducer and oxidant concentration to that of untreated control cells that received only the vehicle in which sulforaphane (DMSO) and menadione (DMSO or PBS) were dissolved. In each experiment three identical 96-well plates were used and the means of the absorbance values, the standard deviations of these means, and their coefficients of variation were calculated.
(§3) Dose-effect analyses were performed according to the Median Effect Equation, by use of a computer program (Chou, T. C. & Hayball, M. (1996) CalcuSyn for Windows 3.1 and 95: multiple dose effect analyzer and manual for IBM-PC, Biosoft, Cambridge, U.K). The equation: fa/fu=[D/Dm]^m, where fa is the fraction of cells affected by the oxidant, fu is the fraction unaffected (i.e., 1-fa), D is the dose of oxidant required to produce the effect fa, Dm is the concentration of oxidant required to produce a 50% effect, i.e., when fa=fu, and the slope m is a measure of the sigmoidicity of the dose-response curve, and is therefore a measure of cooperativity. The results are analyzed by plotting log(fa/fu) with respect to log D of the oxidant. The computer program provides the slope (m) of the curves, and the goodness of fit (r^2) to linearity.

The subject of test [1] is Retina Pigment Epithelium Cell. In words: Photooxidative damage by all-trans-retinal and 365 nm light, protection by sulforaphane (cell survival). To be noted: sulforaphane 0.00 μM. As for the experimental part: There is accumulating evidence that chronic exposure to sunlight plays a role in some degenerative diseases, for instance, age-related macular degeneration (AMD). We have, therefore, carried out an experiment of protection of human RPE cells against photooxidative damage mediated by all-trans-retinal, which exists in human retina and is a critical component of the visual cycle.
as §2
To examine the protective effect of sulforaphane against photooxidative damage mediated by all-trans-retinal and light exposure, the cells were treated with 0-100 μM of all-trans-retinal for 2 hours and light exposure at 365 nm for 20 min after incubation with 0-5 μM of sulforaphane for 24 hours.

In the next test the test system is HaCaT cells. In words: tert-Butyl hydroperoxide cytotoxicity (MTT, median effect analysis) and protection by sulforaphane. The protocol: Mouse L1210 leukemia cells, a gift from Dr. Joseph G. Cory, East Carolina State University, Greenville, N.C., were grown in RPMI 1640 medium supplemented with 10% horse serum. All cultures were incubated in a humidified atmosphere of 5% CO2 at 37° C. Media and sera were obtained from Life Technologies (Rockville, Md.).
as §1, §2, §3

[2] abbreviates: ARPE-19, mean over sulforaphane 0-2.5 μM.

Take `CCCCCC(O)C=CC=O` (centres unmarked) [4-hydroxynonenal, 4-Hydroxynon-2-enal, reference compound]: in the test on ARPE-19 cells (ARPE-19, 4-hydroxynonenal 4 h, sulforaphane 0.00 μM), the “m (slope of median effect plot) for 4-hydroxynonenal” value was 2.85. Also, the “mean slope m for 4-hydroxynonenal” value with ARPE-19 cells (setting [2]) was 2.66. The EC50 in the test with ARPE-19 cells (ARPE-19, 4 h, ARPE-19, 4-hydroxynonenal 4 h, sulforaphane 0.00 μM, read-out: Dm (median effect concentration) of 4-hydroxynonenal) amounted to 8.7 µM.
Consider `CC1=C(/C=C/C(C)=C/C=C/C(C)=C/C=O)C(C)(C)CCC1` [All-trans-Retinal, all-trans-retinal, reference compound], for which the Survival amounted to 83.6% in test [1] (365 nm light, all-trans-retinal 12.5 μM); 41.9% in test [1] (365 nm light, all-trans-retinal 25 μM); 9.4% in test [1] (365 nm light, all-trans-retinal 50 μM); 3.1% in test [1] (365 nm light, all-trans-retinal 100 μM); 96.3% in test [1] (in dark, all-trans-retinal 12.5 μM); 97.6% in test [1] (in dark, all-trans-retinal 25 μM). The Survival in test [1] (in dark, all-trans-retinal 50 μM) was 96.8%; in test [1] (in dark, all-trans-retinal 100 μM), 75.0%.
Consider `O=NOO` [Peroxynitrite, reference compound], for which the “mean slope m for peroxynitrite” value in the test with ARPE-19 cells (setting [2]) is listed as 6.29. For the same compound, in the test on ARPE-19 cells (ARPE-19, peroxynitrite (from SIN-1) 2 h, sulforaphane 0.00 μM), the “m (slope of median effect plot) for peroxynitrite” value stood at 6.07. The EC50 in the test with ARPE-19 cells (ARPE-19, 2 h, ARPE-19, peroxynitrite (from SIN-1) 2 h, sulforaphane 0.00 μM, read-out: Dm (median effect concentration) of peroxynitrite) was 1440 µM.
Consider `CC(C)(C)OO` [tert-Butyl hydroperoxide, Tert-Butyl hydroperoxide, reference compound], for which the “mean slope m for tert-butyl hydroperoxide” value in the test on ARPE-19 cells (setting [2]) is recorded as 1.93. Moreover, the “m (slope of median effect plot) for tert-butyl hydroperoxide” value is listed as 2.52 with ARPE-19 cells (ARPE-19, tert-butyl hydroperoxide 16 h, sulforaphane 0.00 μM) and 0.899 with HaCaT cells (tert-butyl hydroperoxide 8 h, sulforaphane 0.00 μM). Besides, the EC50 worked out at 95.8 µM in the test on ARPE-19 cells (ARPE-19, 16 h, read-out: Dm (median effect concentration) of tert-butyl hydroperoxide) and 63.5 µM in the test with HaCaT cells (Homo sapiens, 8 h, read-out: Dm (median effect concentration) of tert-butyl hydroperoxide). In the test with HaCaT cells (over the sulforaphane concentrations), the “slopes of the median effect plots for tert-butyl hydroperoxide” value is reported as 0.8-1.2.
